The supplement of paper PMC8967900

Key:
Experiment in all cases: selective drug sensitivity score (sDSS, relative to normal bone marrow) (sDSS (score)); higher = more potent and effective on the cell line relative to normal bone marrow cells
Conditions in all cases: 72 h
MOLT-14 = test system: MOLT-14
NALL-1 = test system: NALL-1
JURKAT = test system: JURKAT
ALL-SIL = test system: ALL-SIL
SEM cells = test system: SEM cells
P30-OHKUBO = test system: P30-OHKUBO
HAL-01 = test system: HAL-01
P12-ICHIKAWA = test system: P12-ICHIKAWA
HPB-ALL = test system: HPB-ALL
MN-60 = test system: MN-60
COG-LL-394h = test system: COG-LL-394h
LC4-1 = test system: LC4-1
KASUMI-10 = test system: KASUMI-10
TANOUE = test system: TANOUE
KASUMI-9 = test system: KASUMI-9
DND-41 = test system: DND-41
RCH-ACV = test system: RCH-ACV
COG-LL-319h = test system: COG-LL-319h
380 = test system: 380
MHH-CALL-3 = test system: MHH-CALL-3
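Further: ALL cell lines in 384-well plates, five doses spanning 10,000-fold, each plate scaled between vehicle and 100 µmol/L benzalkonium chloride controls, sDSS an adapted area-under-curve metric.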

Row | SMILES | selective drug sensitivity score (MOLT-14) | selective drug sensitivity score (NALL-1) | selective drug sensitivity score (JURKAT) | selective drug sensitivity score (ALL-SIL) | selective drug sensitivity score (SEM cells) | selective drug sensitivity score (P30-OHKUBO) | selective drug sensitivity score (HAL-01) | selective drug sensitivity score (P12-ICHIKAWA) | selective drug sensitivity score (HPB-ALL) | selective drug sensitivity score (MN-60) | selective drug sensitivity score (COG-LL-394h) | selective drug sensitivity score (LC4-1) | selective drug sensitivity score (KASUMI-10) | selective drug sensitivity score (TANOUE) | selective drug sensitivity score (KASUMI-9) | selective drug sensitivity score (DND-41) | selective drug sensitivity score (RCH-ACV) | selective drug sensitivity score (COG-LL-319h) | selective drug sensitivity score 380 | selective drug sensitivity score (MHH-CALL-3)
1 | CNS(=O)(=O)Nc1nccc(Cc2c(C)c3ccc(Oc4ncccn4)cc3oc2=O)c1F (top concentration 1000 nM) | -0.98 | 2.22 | 0.92 | 0.42 | 1.82 | -1.18 | 0.82 | -0.98 | -1.18 | -1.18 | 1.12 | -0.18 | -1.18 | -1.18 | 0.02 | 3.92 | 0.42 | -1.18 | -1.18 | -1.18
2 | C[C@H]1Oc2cc(cnc2N)-c2c(nn(C)c2C#N)CN(C)C(=O)c2ccc(F)cc21 (top concentration 1000 nM) | -0.72 | -0.72 | -0.72 | -0.32 | -0.72 | -0.02 | 4.18 | -0.72 | -0.72 | -0.72 | -0.72 | -0.72 | -0.72 | -0.72 | -0.72 | -0.72 | 3.38 | 7.38 | -0.72 | -0.72
3 | CCc1cncnc1N1CCN(Cc2nc3cc(C(F)(F)F)ccc3[nH]2)CC1 (top concentration 10000 nM) | 0.16 | 8.66 | 7.36 | 1.76 | 9.76 | 5.26 | 4.76 | 3.66 | 0.96 | 1.96 | 4.56 | 4.16 | 2.76 | 3.26 | 3.86 | 0.56 | 6.46 | 1.46 | -0.84 | 2.46
4 | CN(C)CC#Cc1ccc(OCCCc2sc(N3CCc4cccc(C(=O)Nc5nc6ccccc6s5)c4C3)nc2C(=O)O)c(F)c1 (top concentration 10000 nM) | 12.3 | 3.46 | 10.9 | 37.6 | -0.24 | -1.44 | 2.06 | 39.3 | 24.9 | -3.64 | 17 | 0.36 | 11 | -3.34 | -1.24 | 34 | -1.54 | 21.7 | 15.7 | 19
5 | O=C(NC[C@H](O)CN1CCc2ccccc2C1)c1cc(NC2COC2)ncn1 (top concentration 10000 nM) | -0.06 | -0.06 | -0.06 | -0.06 | -0.06 | 0.84 | -0.06 | 0.24 | 3.44 | -0.06 | -0.06 | -0.06 | -0.06 | -0.06 | -0.06 | -0.06 | 1.24 | 9.34 | -0.06 | -0.06
6 | O=C1Cc2cc(C(=O)NC3C[C@H]4CC[C@@H](C3)N4S(=O)(=O)CC3CCN(CCCC(F)(F)F)CC3)c(Cl)cc2N1 (stereo not given in full) (top concentration 10000 nM) | 0 | 0.6 | 0 | 0 | 0 | 0.5 | 0 | 0 | 0.5 | 0 | 0 | 0 | 0 | 0 | 0.6 | 0 | 0 | 0 | 0 | 0
7 | CC/C(=C(\c1ccc(O)cc1)c1ccc(OCCN(C)C)cc1)c1ccccc1 [4-hydroxytamoxifen] (top concentration 10000 nM) | 0.32 | -1.78 | 2.02 | 1.22 | 1.62 | 4.12 | 1.92 | 2.02 | 0.52 | -2.08 | 2.12 | 0.72 | -1.78 | -2.88 | 3.62 | 2.72 | 0.72 | -4.48 | -1.48 | -2.58
8 | COCC1(CO)C(=O)C2CCN1CC2 (stereo not given) [APR-246] (top concentration 10000 nM) | -1.16 | -1.16 | -1.16 | -1.16 | -1.16 | -0.76 | -0.36 | -1.16 | 2.14 | -1.16 | -1.16 | 0.74 | -1.16 | 4.54 | -0.66 | -1.16 | -1.16 | 7.44 | 4.54 | 0.14
9 | Cc1sc2c(c1C)C(c1ccc(Cl)cc1)=N[C@@H](CC(=O)Nc1ccc(OCCOCCOCCOCCNc3cccc4c3C(=O)N(C3CCC(=O)NC3=O)C4=O)cc1)c1nnc(C)n1-2 (stereo not given in full) [ARV-825] (top concentration 300 nM) | -0.86 | -12.1 | -13.2 | -6.46 | 2.24 | 3.74 | -12.1 | -7.46 | -10.9 | -1.56 | -0.96 | 3.64 | 3.84 | -17.1 | 6.64 | 0.84 | 4.44 | 4.04 | 2.04 | 7.44
10 | COc1cc(OC2CCN(C)CC2)ccc1Nc1ncc2c(n1)n(C1CCCC1)c(=O)n2C [AZ3146] (top concentration 10000 nM) | 2.04 | -2.16 | 0.24 | 2.14 | 2.04 | -0.06 | 2.24 | 0.64 | 3.14 | -0.16 | 1.04 | 3.14 | 3.64 | -4.16 | -0.36 | 0.24 | 1.24 | 7.04 | -2.86 | -4.16
11 | CN(C)CCCOc1ccc(-c2ccc3ncc4c(c3c2)n(C2CCOCC2)c(=O)n4C)cn1 [AZD0156] (top concentration 1000 nM) | 0.14 | 2.54 | -0.06 | 1.84 | 1.14 | 2.04 | 0.64 | 0.14 | 0.24 | -0.06 | -0.06 | 1.04 | -0.06 | -0.06 | 1.04 | 4.14 | 7.24 | 3.84 | 2.24 | -0.06
12 | N#Cc1ccc2[nH]c(O)c(-c3ccc(CN4CCOCC4)cn3)c2c1 [AZD-1080] (top concentration 10000 nM) | -0.02 | -0.02 | -0.02 | -0.02 | 4.58 | 1.78 | -0.02 | -0.02 | -0.02 | -0.02 | -0.02 | 3.28 | 1.88 | -0.02 | 4.08 | -0.02 | 3.98 | 6.28 | -0.02 | 5.18
13 | CN(C)C/C=C/C(=O)Nc1cc2c(Nc3ccc(F)c(Cl)c3)ncnc2cc1O[C@H]1CCOC1 [Afatinib] (top concentration 1000 nM) | -0.84 | -0.84 | 0.16 | -0.84 | 0.96 | 1.56 | 3.06 | -0.74 | -0.84 | -0.84 | -0.84 | -0.84 | -0.84 | -0.84 | 2.16 | -0.84 | 1.26 | -0.84 | -0.84 | 3.96
14 | O=C(Nc1ccc(OC(F)(F)Cl)cc1)c1cnc(N2CC[C@@H](O)C2)c(-c2cc[nH]n2)c1 [Asciminib] (top concentration 1000 nM) | -0.28 | 3.62 | -0.58 | 31.2 | 5.72 | -0.58 | -0.88 | -1.98 | 1.62 | -1.98 | 4.52 | -1.98 | -1.98 | 1.12 | -1.68 | 0.22 | -1.98 | 10 | 1.92 | -0.98
15 | CC[C@@H]1C(=O)N(C)c2cnc(Nc3ccc(C(=O)NC4CCN(C)CC4)cc3OC)nc2N1C1CCCC1 [BI-2536] (top concentration 1000 nM) | 19 | -8.46 | 19.2 | 21.5 | 20.7 | 18.3 | 3.64 | 20.9 | 18.2 | -0.16 | 9.44 | 20.1 | 11.9 | -8.46 | 20.3 | 15.6 | 15.5 | 23.6 | 18.3 | 7.94
16 | Cc1ccc(NC(=O)c2ccc(CN3CC[C@H](N(C)C)C3)c(C(F)(F)F)c2)cc1Nc1nccc(-c2cncnc2)n1 [Bafetinib] (top concentration 1000 nM) | 0.3 | 0 | 0 | 34 | 0 | 0 | 0 | 0 | 0 | 4 | 3 | 0.4 | 0 | 0 | 0 | 1 | 0.4 | 1.9 | 0 | 0
17 | CC[C@H](NC(=O)[C@H](C)NC)C(=O)N1C[C@@H](O)C[C@H]1Cc1c(-c2[nH]c3cc(F)ccc3c2C[C@@H]2C[C@H](O)CN2C(=O)[C@H](CC)NC(=O)[C@H](C)NC)[nH]c2cc(F)ccc12 [Birinapant] (top concentration 1000 nM) | -5.1 | 6.9 | -4.9 | 8.7 | -5.1 | -0.1 | -5.1 | -5.1 | -5.1 | 1.4 | 16.2 | -5.1 | -4.9 | -5.1 | -5.1 | -5.1 | 3.1 | 14.5 | -5.1 | -5.1
18 | COc1cc2nccc(Oc3ccc(NC(=O)C4(C(=O)Nc5ccc(F)cc5)CC4)cc3)c2cc1OC [Cabozantinib] (top concentration 1000 nM) | 1.28 | -3.62 | -3.62 | 4.48 | 17.6 | -3.62 | 3.88 | -3.62 | -3.02 | -3.62 | 0.18 | -3.02 | 14.1 | -3.62 | -3.62 | -3.62 | -3.62 | -2.22 | -3.62 | -3.62
